Data published in ChEMBL document CHEMBL1681704, “Design and synthesis of novel allosteric MEK inhibitor CH4987655 as an orally available anticancer agent” (Bioorg Med Chem Lett, 2011).
In brackets after ≈: the same amount, converted by molar mass. One block for each compound: values may come before it. Activity calls are given as the source filed them. The calls are words filed in the database; no cut-off is given here.

Columns and labels:
[1] = Solubility in 50 mM phosphate buffer at pH 6.5 after 2 hrs; type: physicochemical
[2] = Half life in mouse liver microsomes at 1 uM; type: ADME, Microsome
[3] = Half life in human liver microsomes at 1 uM; type: ADME, Microsome
[4] = Toxicity in human HT-29 cells xenografted BALB/c nu/nu mouse assessed as maximum tolerable dose; type: organism-based; settings: in vivo
[5] = Inhibition of MEK after 30 mins
[6] = system: QG-56; experiment: Cytotoxicity against human QG56 cells after 4 days; type: functional, cell-based; settings: QG-56, 96 h
[7] = system: HT-29; experiment: Cytotoxicity against human HT-29 cells after 4 days; type: functional, cell-based; settings: HT-29, 96 h
[8] = system: HT-29; experiment: Antitumor activity against human HT-29 cells xenografted in BALB/c nu/nu mouse assessed as tumor growth inhibition at maximum tolerable dose administered as po qd for 14 days; type: functional
[9] = Antitumor activity against human H441 cells expressing Kras G12V mutant xenografted in CAnN.Cg-Foxn1 nu/CrlCrlj mouse assessed as tumor regression at maximum tolerable dose administered as po qd for 14 days; type: functional, NCI-H441
[10] = AUC (infinity) in cynomolgus monkey at 3 mg/kg, po; type: ADME, organism-based, Macaca fascicularis; design: time infinity, dose 3 mg/kg, route oral; settings: plasma
[11] = system: HT-29; experiment: Inhibition of MEK in human HT-29 cells xenografted in BALB/c nu/nu mouse tumor assessed as phosphorylated ERK level at maximum tolerable dose administered as po; type: functional, cell-based; settings: Neoplasm
[12] = Half life in cynomolgus monkey at 6 mg/kg, po; type: ADME, organism-based, Macaca fascicularis; design: dose 6 mg/kg, route oral; settings: in vivo
[13] = Half life in cynomolgus monkey at 3 mg/kg, po; type: ADME, organism-based, Macaca fascicularis; design: dose 3 mg/kg, route oral; settings: in vivo
[14] = AUC (infinity) in cynomolgus monkey at 1.5 mg/kg, po; type: ADME, organism-based, Macaca fascicularis; design: time infinity, dose 1.5 mg/kg, route oral; settings: plasma
[15] = Tmax in cynomolgus monkey at 6 mg/kg, po; type: ADME, organism-based, Macaca fascicularis; design: dose 6 mg/kg, route oral; settings: in vivo
[16] = MRT (infinity) in cynomolgus monkey at 3 mg/kg, po; type: ADME, organism-based, Macaca fascicularis; design: dose 3 mg/kg, route oral; settings: in vivo
[17] = Half life in cynomolgus monkey at 1.5 mg/kg, po; type: ADME, organism-based, Macaca fascicularis; design: dose 1.5 mg/kg, route oral; settings: in vivo
[18] = Genotoxicity in Salmonella Typhimurium by Ames test; type: toxicity; settings: salmonella enterica subsp. enterica serovar typhimurium
[19] = Cmax in cynomolgus monkey at 3 mg/kg, po; type: ADME, organism-based, Macaca fascicularis; design: dose 3 mg/kg, route oral; settings: in vivo
[20] = system: HT-29; experiment: Antitumor activity against human HT-29 cells expressing b-Raf V600E mutant xenografted in CAnN.Cg-Foxn1 nu/CrlCrlj mouse assessed as tumor regression at maximum tolerable dose administered as po qd for 14 days; type: functional
[21] = Cmax in cynomolgus monkey at 6 mg/kg, po; type: ADME, organism-based, Macaca fascicularis; design: dose 6 mg/kg, route oral; settings: in vivo
[22] = AUC (infinity) in cynomolgus monkey at 6 mg/kg, po; type: ADME, organism-based, Macaca fascicularis; design: time infinity, dose 6 mg/kg, route oral; settings: plasma
[23] = Cmax in cynomolgus monkey at 1.5 mg/kg, po; type: ADME, organism-based, Macaca fascicularis; design: dose 1.5 mg/kg, route oral; settings: in vivo
[24] = MRT (infinity) in cynomolgus monkey at 1.5 mg/kg, po; type: ADME, organism-based, Macaca fascicularis; design: dose 1.5 mg/kg, route oral; settings: in vivo
[25] = target: Cytochrome P450 3A4 (Homo sapiens, UniProt P08684); experiment: Inhibition of CYP3A4; type: ADME
Cytochrome P450 3A4, sequence (P08684 whole entry): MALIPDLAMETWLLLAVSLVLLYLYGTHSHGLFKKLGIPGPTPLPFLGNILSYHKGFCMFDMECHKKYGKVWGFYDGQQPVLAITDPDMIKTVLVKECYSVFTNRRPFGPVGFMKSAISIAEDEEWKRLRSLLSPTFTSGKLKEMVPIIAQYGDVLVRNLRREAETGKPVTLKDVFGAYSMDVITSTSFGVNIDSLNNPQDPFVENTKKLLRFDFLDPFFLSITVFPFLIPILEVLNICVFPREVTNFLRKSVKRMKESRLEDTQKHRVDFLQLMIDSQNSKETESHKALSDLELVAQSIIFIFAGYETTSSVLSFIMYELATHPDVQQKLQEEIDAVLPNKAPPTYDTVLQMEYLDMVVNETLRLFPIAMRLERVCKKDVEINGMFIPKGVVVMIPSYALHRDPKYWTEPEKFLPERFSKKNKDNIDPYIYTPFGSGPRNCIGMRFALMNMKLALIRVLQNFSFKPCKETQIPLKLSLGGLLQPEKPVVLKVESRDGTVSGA

[26] = target: Voltage-gated inwardly rectifying potassium channel KCNH2 (Homo sapiens, UniProt Q12809); experiment: Inhibition of human ERG
Voltage-gated inwardly rectifying potassium channel KCNH2, sequence (Q12809 whole entry): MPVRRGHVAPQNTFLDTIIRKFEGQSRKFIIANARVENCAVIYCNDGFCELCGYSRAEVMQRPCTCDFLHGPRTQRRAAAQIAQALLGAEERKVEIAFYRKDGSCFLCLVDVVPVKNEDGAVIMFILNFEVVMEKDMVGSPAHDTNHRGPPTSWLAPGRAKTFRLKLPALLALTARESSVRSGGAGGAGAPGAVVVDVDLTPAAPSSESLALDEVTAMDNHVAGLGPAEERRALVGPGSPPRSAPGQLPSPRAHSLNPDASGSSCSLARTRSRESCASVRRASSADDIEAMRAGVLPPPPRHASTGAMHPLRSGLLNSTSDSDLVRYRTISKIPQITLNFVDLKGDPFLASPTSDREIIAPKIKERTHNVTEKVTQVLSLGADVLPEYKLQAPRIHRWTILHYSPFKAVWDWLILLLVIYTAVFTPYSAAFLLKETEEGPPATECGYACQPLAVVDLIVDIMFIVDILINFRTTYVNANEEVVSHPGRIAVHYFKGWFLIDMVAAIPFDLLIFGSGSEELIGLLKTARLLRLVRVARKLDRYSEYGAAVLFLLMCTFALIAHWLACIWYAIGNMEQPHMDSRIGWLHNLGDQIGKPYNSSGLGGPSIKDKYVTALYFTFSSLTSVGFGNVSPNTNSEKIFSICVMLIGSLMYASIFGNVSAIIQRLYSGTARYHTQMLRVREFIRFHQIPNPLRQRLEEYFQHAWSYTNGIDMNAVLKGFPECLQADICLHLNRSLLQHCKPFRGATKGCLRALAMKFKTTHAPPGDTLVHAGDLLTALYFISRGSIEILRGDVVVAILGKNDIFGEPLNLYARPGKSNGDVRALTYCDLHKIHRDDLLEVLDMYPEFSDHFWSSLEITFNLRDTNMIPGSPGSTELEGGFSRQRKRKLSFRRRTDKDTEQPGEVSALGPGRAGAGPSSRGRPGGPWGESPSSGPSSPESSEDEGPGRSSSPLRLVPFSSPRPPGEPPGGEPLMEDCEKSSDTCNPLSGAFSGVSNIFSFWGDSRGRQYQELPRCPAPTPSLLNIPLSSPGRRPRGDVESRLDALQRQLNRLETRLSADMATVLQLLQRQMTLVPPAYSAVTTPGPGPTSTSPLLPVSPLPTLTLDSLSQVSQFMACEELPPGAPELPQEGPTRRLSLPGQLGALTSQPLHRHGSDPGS

[27] = MRT (infinity) in cynomolgus monkey at 6 mg/kg, po; type: ADME, organism-based, Macaca fascicularis; design: dose 6 mg/kg, route oral; settings: in vivo
[28] = Tmax in cynomolgus monkey at 1.5 mg/kg, po; type: ADME, organism-based, Macaca fascicularis; design: dose 1.5 mg/kg, route oral; settings: in vivo
[29] = system: PANC-1; experiment: Antitumor activity against human PANC1 cells expressing Kras […] mutant xenografted in CAnN.Cg-Foxn1 nu/CrlCrlj mouse assessed as tumor regression at maximum tolerable dose administered as po qd for 14 days; type: functional
[30] = Tmax in cynomolgus monkey at 3 mg/kg, po; type: ADME, organism-based, Macaca fascicularis; design: dose 3 mg/kg, route oral; settings: in vivo
[31] = system: Brain; experiment: Inhibition of MEK in human HT-29 cells xenografted in BALB/c nu/nu mouse brain assessed as phosphorylated ERK level at maximum tolerable dose administered as po; type: functional, cell-based
[32] = system: Cynomolgus monkey; experiment: In vivo metabolic stability in cynomolgus monkey assessed as plasma concentration at 2 mg/kg, po; type: ADME, organism-based, Macaca fascicularis; design: dose 2 mg/kg, route oral

Structure (SMILES): CON(Cc1cc(C(=O)NOCCO)c(Nc2ccc(I)cc2F)c(F)c1F)C(C)=O
solubility at 2 h [1]: 116 µM (≈ 64.2 µg/mL) | half-life at 1 µM [2]: 0.6 h | half-life at 1 µM [3]: 1.07 h | MTD [4]: 25 mg/kg

Structure (SMILES): O=C(NOCCO)c1cc(CNOCCO)c(F)c(F)c1Nc1ccc(I)cc1F
half-life at 1 µM [2]: 2.13 h | half-life at 1 µM [3]: > 6 h | MTD [4]: 100 mg/kg

solubility at 2 h [1]: 284 µM (≈ 157 µg/mL) | IC50 [5]: > 250 nM | half-life at 1 µM [2]: > 6 h | half-life at 1 µM [3]: > 6 h
Structure (SMILES): O=C(NOCCO)c1cc(CN2CCOC2=O)c(F)c(F)c1Nc1ccc(I)cc1F
IC50 [6]: 3060 nM | IC50 [7]: 560 nM

Structure (SMILES): O=C(NOCCO)c1cc(CN2OCCC2=O)c(F)c(F)c1Nc1ccc(I)cc1F
half-life at 1 µM [2]: > 6 h | half-life at 1 µM [3]: > 6 h | MTD [4]: 12.5 mg/kg

Structure (SMILES): CS(=O)(=O)CCO/N=C/c1cc(C(=O)NOCCO)c(Nc2ccc(I)cc2F)c(F)c1F
solubility at 2 h [1]: 1 µM (≈ 0.601 µg/mL) | IC50 [5]: 67 nM | half-life at 1 µM [2]: > 6 h | IC50 [6]: 24 nM | TGI [8]: 98% | IC50 [7]: 27 nM | half-life at 1 µM [3]: 1.5 h | MTD [4]: > 200 mg/kg

Structure (SMILES): C#Cc1ccc(Nc2c(C(=O)NOCCO)cc(/C=N/OCCO)c(F)c2F)c(F)c1
IC50 [5]: 235 nM | half-life at 1 µM [2]: 2.25 h | IC50 [6]: 160 nM | TGI [8]: 82% | IC50 [7]: 150 nM | half-life at 1 µM [3]: 1.33 h | MTD [4]: > 200 mg/kg

Structure (SMILES): O=C(NOCCO)c1cc(COCCO)c(F)c(F)c1Nc1ccc(I)cc1F
half-life at 1 µM [2]: > 6 h | half-life at 1 µM [3]: > 6 h | MTD [4]: 50 mg/kg

AUC(0-inf) [10]: 7400 ng·h/mL | half-life [12]: 5 h | half-life [13]: 6 h | AUC(0-inf) [14]: 2200 ng·h/mL | Tmax [15]: 1.5 h | MRT inf [16]: 8.8 h | half-life [17]: 6.6 h | half-life at 1 µM [2]: > 6 h | Cmax [19]: 1000 ng/mL | Cmax [21]: 2100 ng/mL | AUC(0-inf) [22]: 10400 ng·h/mL | Cmax [23]: 400 ng/mL | half-life at 1 µM [3]: 1.93 h | MRT inf [24]: 8.4 h | IC50 [25]: > 100000 nM | MRT inf [27]: 7.3 h | Tmax [28]: 1.3 h | Tmax [30]: 2.5 h
Structure (SMILES): O=C(NOCCO)c1cc(CN2OCCCC2=O)c(F)c(F)c1Nc1ccc(I)cc1F [RO-4987655]
Activity [9]: 70% | inhibition [11]: Active | Activity [18]: Non-toxic | Activity [20]: 70% | inhibition (INH) [26]: Not Active | Activity [29]: 70% | inhibition [31]: inactive

solubility at 2 h [1]: 57 µM (≈ 32.3 µg/mL) | IC50 [5]: 42 nM | half-life at 1 µM [2]: 2.1 h | half-life at 1 µM [3]: 0.633 h
Structure (SMILES): O=C(NOCCO)c1cc(CN2OCCOC2=O)c(F)c(F)c1Nc1ccc(I)cc1F
IC50 [6]: 56 nM | IC50 [7]: 17 nM

Structure (SMILES): CC(C)(O)CO/N=C/c1cc(C(=O)NOCCO)c(Nc2ccc(I)cc2F)c(F)c1F
IC50 [5]: 37 nM | half-life at 1 µM [2]: > 6 h | IC50 [6]: 128 nM | TGI [8]: 85% | IC50 [7]: 40 nM | half-life at 1 µM [3]: > 6 h | MTD [4]: 100 mg/kg

Structure (SMILES): O=C(NOCCO)c1cc(/C=N\OCCO)c(F)c(F)c1Nc1ccc(I)cc1F
IC50 [5]: 15 nM | half-life at 1 µM [2]: > 6 h | IC50 [6]: 6 nM | TGI [8]: 95% | IC50 [7]: 2.4 nM | half-life at 1 µM [3]: > 6 h | MTD [4]: 12.5 mg/kg

half-life [12]: 5.5 h | Tmax [15]: 1.1 h | Cmax [21]: 1700 ng/mL | AUC(0-inf) [22]: 7900 ng·h/mL | MRT inf [27]: 7.3 h | Stability [32]: Stable
Structure (SMILES): O=C(NOC[C@H](O)CO)c1ccc(F)c(F)c1Nc1ccc(I)cc1F [MIRDAMETINIB]
inhibition [11]: Active | inhibition [31]: Active

Structure (SMILES): CC(=O)NCCO/N=C/c1cc(C(=O)NOCCO)c(Nc2ccc(I)cc2F)c(F)c1F
IC50 [5]: 48 nM | half-life at 1 µM [2]: > 6 h | IC50 [6]: 199 nM | TGI [8]: 99% | IC50 [7]: 86 nM | half-life at 1 µM [3]: > 6 h | MTD [4]: > 200 mg/kg

solubility at 2 h [1]: 156 µM (≈ 85.7 µg/mL) | IC50 [5]: 85 nM | half-life at 1 µM [2]: 2.07 h | half-life at 1 µM [3]: 3.08 h
Structure (SMILES): O=C(NOCCO)c1cc(CN2CCCC2=O)c(F)c(F)c1Nc1ccc(I)cc1F
IC50 [6]: 57 nM | IC50 [7]: 20 nM

Structure (SMILES): O=C(NOCCO)c1cc(/C=N/OCCO)c(F)c(F)c1Nc1ccc(I)cc1F
IC50 [5]: 100 nM | half-life at 1 µM [2]: 3.95 h | IC50 [6]: 160 nM | TGI [8]: 82% | IC50 [7]: 80 nM | half-life at 1 µM [3]: 1.08 h | MTD [4]: 100 mg/kg
